Data set [1] is described as follows: Solubility of PAP prodrugs in 0.1N HCl. The format is physicochemical. Particulars: for solubility: simulated gastric fluid.
The nature of data set [2]: Oral bioavailability of PAP prodrugs in rats (plasma PAP by LC-MS-MS). It counts as in vivo. As for the experimental part: The oral bioavailability of PAP (phenazopyridine) prodrugs was evaluated in healthy rats. All the PAP amide (amino acid derivatives) bases were dissolved in 0.1N HCl (the same result can be obtained with a lower molarity), while the carbamates were dissolved in PEG-400 due to the very poor aqueous solubility of the PAP-carbamates. In general, all of the amino acid amide derivatives of PAP had higher water solubility than those of the PAP-carbamates. In another PK study, PAP.HCL salt, Gly-PAP.HCl salt and Gly-PAP.mesylate salt were dissolved in water, affording a clear solution in each case prior to oral administration.
(§1) The rats were fasted overnight prior to dosing. Appropriate amount of each compound was administered via gastric gavages, and at predetermined time (1, 2, 4, 6, and 24 h) blood samples were withdrawn from the rats. The whole blood was centrifuged immediately, and supernatant (plasma) was collected. The plasma samples were assayed for PAP using LC-MS-MS.

A short description of data set [3]: Pharmacokinetics of PAP and intact Gly-PAP in male rats after oral gavage. It counts as in vivo. As for the experimental part: Pharmacokinetics for PAP and Gly-PAP (intact prodrug) were assessed in male rats following administration by oral gavage of mg/kg doses. Rats were fasted overnight prior to dosing. Blood samples were withdrawn at 0.25, 0.5, 1, 2, 4, 6, and 24 hours. The whole blood was centrifuged immediately, and supernatant (plasma) was collected. The plasma samples were assayed for PAP and Gly-PAP by LC-MS-MS.

Data set [4] is described as follows: Pharmacokinetics of PAP and intact Gly-PAP in dogs (plasma and urine) after oral gavage. The format is in vivo. As for the experimental part:
Pharmacokinetics for PAP and Gly-PAP (intact prodrug) were assessed in dogs following administration by oral gavage of mg/kg doses. Blood (approximately 2 mL) was collected from a jugular vein into tubes containing lithium heparin anticoagulant predose and at 0.083, 0.25, 0.5, 1, 2, 4, 8, 12, and 24 hours postdose. Urine was collected into plastic containers surrounded by wet ice predose (−18 to 0) and 0 to 24 hours postdose. The volume of each sample was recorded. Plasma and urine samples were assayed for PAP and Gly-PAP by LC-MS-MS.

A further data set deals with dogs. As to the kind of experiment: Emesis in dogs after oral TID dosing. It counts as in vivo. As to conditions: dogs (1 male/1 female), oral gavage TID, 24.8 mg/kg phenazopyridine base equivalent per dose. The procedure: Dogs (1 male/1 female) were dosed by oral gavage 3 times (TID), once every 8 hours, with 40 mg/kg Gly-PAP or 29 mg/kg phenazopyridine HCl (doses contained an equivalent amount of 24.8 mg/kg phenazopyridine base). […] Results showing reduction of the GI side effect of emesis are illustrated in FIG. 18.

A short description of data set [5]: PAP pharmacokinetics in rats after oral Gly-PAP salt forms. The format is in vivo. As to conditions: PAP in rat plasma, 2.5 mg/kg PAP base equivalent (2.8 for free base). As for the experimental part:
The oral bioavailability of PAP (phenazopyridine) prodrugs was evaluated in healthy rats.
as §1
The pharmacokinetics of various salts of Gly-PAP were compared following oral administration to rats.

Data set [6] deals with rats. Particulars: long term (2 years); cited from earlier work.
The next data set has as its system female mice. Particulars: cited from earlier work.
Data set [7] deals with rats. Particulars: cited from earlier work.
The subject of another data set is mice. As to conditions: i.p.; cited from earlier work.
For data set [8] the following is noted: cited from earlier work.
Another data set deals with mammalian cells. As to conditions: cited from earlier work.
The subject of data set [9] is rats. As to conditions: doses up to 50 mg/kg/day or 110 mg/kg/day; cited from earlier work.
The test system of another data set is rabbits. As to conditions: 39 mg/kg/day; cited from earlier work.
The next data set concerns bacteria. Particulars: cited from earlier work.

≈ marks a conversion by molar mass, not a printed value. Where two headings read alike, the source gives them in different places.

For the molecule `Nc1nc(NC(=O)[C@@H](N)Cc2c[nH]c3ccccc23)ccc1/N=N/c1ccccc1` [Tryptophanyl-PAP, Tryptophanyl-Phenazopyridine], the solubility in [1] is 500 µg/mL (≈ 1250 µM). Moreover, the time of peak concentration (Tmax) in data set [2] (rats, oral) is on record as “longer”.
Consider `NCCCC[C@H](N)C(=O)Nc1ccc(/N=N/c2ccccc2)c(N)n1` [Lysyl-PAP, Lysyl-Phenazopyridine], for which, in data set [1], the solubility was over 2500 µg/mL.
On to `CC(C)[C@H](N)C(=O)Nc1ccc(/N=N/c2ccccc2)c(N)n1` [Valyl-PAP, Valyl-Phenazopyridine], for which the solubility in data set [1] was over 2500 µg/mL.
Same read-out and setting: the result for `CSCC[C@H](N)C(=O)Nc1ccc(/N=N/c2ccccc2)c(N)n1` [Methionyl-PAP, Methionyl-Phenazopyridine] reads 1000 µg/mL (≈ 2900 µM).
`NCC(=O)Nc1ccc(/N=N/c2ccccc2)c(N)n1` [Gly-PAP, Glycyl-Phenazopyridine (6-N-Glycylphenazopyridine)]: in data set [1], the solubility was over 2000 µg/mL. In addition, the “AUC of phenazopyridine from 0.9 mg/kg Gly-PAP versus 2.8 mg/kg phenazopyridine HCl” value in [3] (0.6 versus 2.5 mg/kg phenazopyridine base) was “approximately equal AUC”. Moreover, the “Plasma levels of Gly-PAP relative to those for phenazopyridine from Gly-PAP” value in data set [3] (Gly-PAP 4.0 mg/kg) was under 5%. Also, in [4] (8.1 mg/kg Gly-PAP versus equivalent phenazopyridine HCl, urine 0 to 24 hours), the “Amount of phenazopyridine delivered to the urine” value is “a greater amount of phenazopyridine was delivered to the urine”. For the same molecule, the “Exposure (AUC0-24) to Gly-PAP relative to that for phenazopyridine” value in [4] (Gly-PAP 8.1 mg/kg) is on record as “less than 10%”. Moreover, the “Plasma Tmax for phenazopyridine (comparison)” value in [4] (Gly-PAP compared to phenazopyridine HCl) is reported as “increased”. The Observations of vomitus entry in the data set with dogs was “single observation of vomitus”.
As to phenazopyridine hydrochloride [PAP•HCl], the “Solubility in 0.1N HCl” value in [1] was determined as 500 µg/mL. Also, the Tmax in data set [2] (fasted rats, single oral gavage) was under 60 min; in data set [5], 15 min. Also, in data set [2] (fasted rats, single oral gavage, 0-24 hr), the AUC0-24 was determined as 182 ± 12 ng·h/mL. Further, the AUC0-6 in data set [5] (SD printed in the row below) was determined as 105 ng·h/mL. The Cmax in [5] (water vehicle (0.1N HCl for free base)) came out at 58 ng/mL. In data set [4] (phenazopyridine HCl versus equivalent Gly-PAP), the “Plasma bioavailability of phenazopyridine” value was “greater plasma bioavailability”. Also, the Observations of vomitus result with dogs is recorded as “four observations of vomitus”. Moreover, in the data set on rats [6], the “Tumour induction on long term administration” value was “induced adenomas and adenocarcinomas in the large intestine”. Moreover, in the data set with female mice, the “Tumour induction on lifetime administration” value is “caused hepatocellular adenomas and carcinomas”.
For `CCOC(=O)Nc1ccc(/N=N/c2ccccc2)c(N)n1` [Ethylcarbamyl-PAP, Ethylcarbamyl-Phenazopyridine], the solubility in data set [1] was under 100 µg/mL.
As to `Nc1nc(NC(=O)[C@@H](N)Cc2c[nH]cn2)ccc1/N=N/c1ccccc1` [Histidinyl-PAP, Histidinyl-Phenazopyridine], the solubility in [1] was over 10000 µg/mL.
Regarding `CC(C)COC(=O)Nc1ccc(/N=N/c2ccccc2)c(N)n1` [Isobutylcarbamyl-PAP, Isobutylcarbamyl-Phenazopyridine], the solubility in [1] was under 100 µg/mL. Moreover, the “Tmax” value in [2] (rats, oral) is listed as “longer”.
For `Nc1ccc(/N=N/c2ccccc2)c(N)n1` [Phenazopyridine], the “Acute toxicity LD50” value is 200 mg/kg in the data set on rats [7] (i.p.), 472 mg/kg with rats [7] (oral) and 180 mg/kg in the data set with mice. Also, the “Excreted unchanged in urine” value in data set [8] (oral) is given as “up to 65%”. In data set [8] (within 24 hours), the “Single dose cleared within 24 hours” value is on record as “approximately 90%”. Besides, the Mutagenicity and clastogenicity entry with mammalian cells was “mutagenic and clastogenic”. The “Effects on fertility or embryo-fetal development” value in the data set on rats [9] and in the data set on rabbits was “no effects on fertility or embryo-fetal development” each time. The Mutagenicity entry in the data set on bacteria was “mutagenic”.
As to `C[C@H](N)C(=O)Nc1ccc(/N=N/c2ccccc2)c(N)n1` [Alanyl-PAP, Alanyl-Phenazopyridine], the solubility in [1] was 2000 µg/mL (≈ 7030 µM).
`Nc1nc(NC(=O)OCc2ccccc2)ccc1/N=N/c1ccccc1` [Benzylcarbamyl-PAP, Benzylcarbamyl-Phenazopyridine]: the solubility in data set [1] is under 100 µg/mL.

(Values after US8288365B2, “Phenazopyridine compounds” (Pinnacle Pharmaceuticals, Inc., priority 2008, dated 2012).)
